The subject of one test is tau. Format: cell-based, mouse. The conditions noted are these: for de-phosphorylation of tau at PP2A sensitive sites: increasing concentration of phenformin over 16 h or 1 h. The procedure: (§1) Primary cortical neurons were isolated from brain of wt or transgenic (Mapt^tm1(EGFP)klt Tg(MAPT)8cPdav/J; Jackson Laboratory) embryos at day 14.5. Cortices were collected in DMEM (Lonza) and cells were dissociated by incubation with Trypsin/EDTA for 6.5 min at 37° C. Cells were then diluted in neurobasal medium (Gibco-BRL) containing B27 supplement (Gibco BRL). Cells were plated at a density of 4.0×10^5 onto 0.2 mg/ml poly-D-lysin (Sigma) and 2 μg/ml Laminin (Sigma) coated 12 well plates. Neurons were incubated at 37° C. with 8% CO2. One hour after seeding a complete change of medium was performed. Later on, each 96 hours half volumes of the medium were replaced by fresh medium. After 7 days in culture neurons were treated.
(§2) Cells were incubated with the respective substances as follows: Metformin (Sigma) at final concentrations up to 2.5 mM for 1 to >24 hours, okadaic acid (Sigma) at final concentrations from 1 nM to 10 nM for 4 h, Fostricien (Sigma) at final concentration of 1 μM for 4 h and AICAR (cell signalling) at final concentration of 5 mM for 0.5-16 h. For cell treatment without insulin, medium containing B27+insulin supplement was replaced with medium containing B27-supplement without insulin 24 h before treatment. 3 groups of 2 mice were treated with or without 5 mg/l metformin in the drinking water.
(§3) Cell pellets were homogenized in Magic-Mix (48% UREA, 15 mM Tris-HCL pH 7.5, 8.7% Glycerin, 1% SDS, 0.004% Bromphenolblue, 143 mM Mercaptoethanol), sonicated and boiled for 5 min at 95° C. Proteins were resolved on 8 or 10% SDS gels and blotted onto PVDF-membranes (Roche). Antibodies used in this study were purchased from the following companies: Tau-5 (Biosource), anti-human PHF pSer202 (Thermo scientific), Tau pSer356 (Biosource), Tau pSer262 (Biosource), Tau pSer396 (Sigma), Actin (Sigma), ACC (cell signalling), ACC pSer79 (cell signalling), phospho-S6 ribosomal protein pSer241/244 (cell signalling), p70S6 Kinase (cell signalling), p70S6K pThr421/pSer424 (cell signalling), mTOR (cell signalling), AMPK (cell signallling, AMPK pThr172 (cell singnaling), HRP-anti-rabbit (Amersham), HRP-anti-mouse (Dianova). The resulting bands were quantified using Imagequant5.2. Statistical analyses were performed using SigmaStat software package (v 3.0, SPSS, USA). For timecourse or dose-response studies, data were analyses by one-way ANOVA with post hoc Dunnett's or Bonferonni test to accommodate for multiple comparisons. A Student's t-test was used for two-group comparisons, as appropriate.

Test [1] concerns the target T1, purified PP2Ac (catalytic subunit of PP2A) (Homo sapiens, UniProt P67775).
T1 construct: purchased upstate
Put plainly: PP2A activity assay (malachite green), purified PP2Ac. Format: biochemical. The conditions noted are these: 10 nM okadaic acid, 1 hour. The procedure:
(§4) Either purified PP2Ac (upstate), cell lysates or PP2A-holoenzymes, which were purified by immunoprecipitation using a PP2A-A-subunit antibody (Millipore), were incubated with or without 10 mM metformin or 10 nM okadaic acid for 1 hour. Afterwards PP2A phosphatase activity was determined using a malachite green assay kit (upstate) following the manufacturer's instructions.

A further test has as its system PP2A-holoenzymes. Put plainly: PP2A activity assay (malachite green), PP2A-holoenzymes immunopurified from HeLa cell lysates. Format: biochemical. The conditions noted are these: 10 nM okadaic acid, 1 hour. The procedure:
as §4

The test system of the next test is p70S6kinase. Put plainly: Phosphorylation of p70S6kinase in primary cortical neurons. The conditions noted are these: 0.25 mM phenformin over increasing time intervals. Format: cell-based, mouse. The procedure:
as §1, §2, §3

In the next test the test system is ACC. Put plainly: Phosphorylation of the AMPK target ACC (Ser79) in primary cortical neurons. Format: cell-based, mouse. The conditions noted are these: increasing time intervals. The procedure:
as §1
Cells were incubated with the respective substances as follows: Metformin (Sigma) at final concentrations up to 2.5 mM for 1 to >24 hours, okadaic acid (Sigma) at final concentrations from 1 nM to 10 nM for 4 h, Fostricien (Sigma) at final concentration of 1 μM for 4 h and AICAR (cell signalling) at final concentration of 5 mM for 0.5-16 h. For cell treatment without insulin, medium containing B27+insulin supplement was replaced with medium containing B27-supplement without insulin 24 h before treatment. […]
as §3, with “Proteins were resolved on 8 or 10% SDS gels and blotted onto PVDF-membranes (Roche).” left out, “Statistical analyses were performed using SigmaStat software package (v 3.0, SPSS, USA). For timecourse or dose-response studies, data were analyses by one-way ANOVA with post hoc Dunnett's or Bonferonni test to accommodate for multiple comparisons. A Student's t-test was used for two-group comparisons, as appropriate.” left out

Where [2] appears, read: increasing concentrations of okadaic acid (1 nM to 10 nM), four hours.

Read-outs that look alike come from different tables or passages of the source.

T1 sequence (P67775 whole entry): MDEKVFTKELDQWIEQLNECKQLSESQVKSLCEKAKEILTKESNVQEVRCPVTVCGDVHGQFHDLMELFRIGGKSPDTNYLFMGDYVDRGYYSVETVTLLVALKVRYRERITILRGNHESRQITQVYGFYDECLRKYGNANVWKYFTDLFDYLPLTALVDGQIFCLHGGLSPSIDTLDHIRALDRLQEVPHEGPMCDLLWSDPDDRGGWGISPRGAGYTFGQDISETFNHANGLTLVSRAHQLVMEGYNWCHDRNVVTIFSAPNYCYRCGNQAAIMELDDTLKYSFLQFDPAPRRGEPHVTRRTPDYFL

With `C=C1[C@@H](O)[C@@H]2O[C@]3(CC[C@H](/C=C/[C@@H](C)[C@@H]4CC(C)=C[C@@]5(O[C@H](C[C@@](C)(O)C(=O)O)CC[C@H]5O)O4)O3)CC[C@H]2O[C@@H]1[C@@H](O)C[C@H](C)[C@H]1O[C@@]2(CCCCO2)CC[C@H]1C` [okadaic acid], the “phosphorylation of Ser202” value in the test on tau (10 nM okadaic acid alone, 4 hours) is listed as “increased”. Further, in the test with tau (setting [2]), the “phosphorylation of Ser202 relative to total tau” value is reported as “increased with the concentration of OA”, the “phosphorylation of Ser262 relative to total tau” value is given as “increased with the concentration of OA”, the “phosphorylation of Ser356 relative to total tau” value is recorded as “increased with the concentration of OA” and the “phosphorylation of Ser396 relative to total tau” value is recorded as “did not increase significantly”. Also, in test [1], the “PP2A activity of purified PP2Ac” value is “reduced”. Further, the “activity of the immunopurified PP2A protein complex” value with PP2A-holoenzymes was “reduced”.
In the case of `[H]/N=C(/N)N/C(=N/[H])NCCc1ccccc1` [phenformin, Phenformin], the “de-phosphorylation of tau at PP2A sensitive sites” value with tau is listed as “Comparable results”; with tau (listed as Phenformin) it was “induces de-phosphorylation”. In the test on tau (okadaic acid 10 nM prior to phenformin 0.25 mM, 4 hours), the “effect on Ser202 phosphorylation with and without okadaic acid pre-treatment” value is reported as “inhibition of PP2A blocks the Phenformin effect”. Moreover, the “phosphorylation status of p70S6kinase” value with p70S6kinase was “promoted de-phosphorylation”; in the test on p70S6kinase (listed as Phenformin), “decrease of pS6kinase phosphorylation”. The “ACC phosphorylation (Ser79)” value in the test with ACC (0.25 mM phenformin) is reported as “neither metformin (FIG. 4a) nor phenformin (FIG. 12) had an effect”.
Regarding `NC(=O)c1ncn([C@@H]2O[C@H](CO)[C@@H](O)[C@H]2O)c1N` [AICAR], the “phosphorylation pattern of tau (PP2A sensitive site)” value in the test on tau (5 mM AICAR, first 16 hours of treatment) is reported as “did not find a significant effect”. Also, the “phosphorylation of tau (Ser202)” value in the test on tau (AICAR, first 8 hours of treatment) is reported as “did not see an effect”. The “ACC phosphorylation (Ser79)” value in the test with ACC (5 mM AICAR) is reported as “significantly increased”.
As for `C[C@@](O)(/C=C/[C@H]1CC=CC(=O)O1)[C@@H](C[C@@H](O)\C=C/C=C\C=C\CO)OP(=O)(O)O` [fostriecin], in the test with tau (1 μM fostriecin alone over 4 hours), the “phosphorylation at Ser202” value was “increased”.

The values above are taken from patent publication US20120184624A1, “Treatment of Alzheimer's Disease” (priority 2010, published 2012).
